Consider one compound from ChEMBL document CHEMBL5584244, “Discovery of novel pyrrolo[2,1-c][1,4]benzodiazepine-3,11-dione (PBD) derivatives as selective HDAC6 inhibitors for the efficient treatment of idiopathic pulmonary fibrosis (IPF) in vitro and in vivo” (Eur J Med Chem, 2024).

This assay deals with T1, Protein deacetylase HDAC6 (Homo sapiens) (UniProt Q9UBN7).
T1 sequence (whole entry): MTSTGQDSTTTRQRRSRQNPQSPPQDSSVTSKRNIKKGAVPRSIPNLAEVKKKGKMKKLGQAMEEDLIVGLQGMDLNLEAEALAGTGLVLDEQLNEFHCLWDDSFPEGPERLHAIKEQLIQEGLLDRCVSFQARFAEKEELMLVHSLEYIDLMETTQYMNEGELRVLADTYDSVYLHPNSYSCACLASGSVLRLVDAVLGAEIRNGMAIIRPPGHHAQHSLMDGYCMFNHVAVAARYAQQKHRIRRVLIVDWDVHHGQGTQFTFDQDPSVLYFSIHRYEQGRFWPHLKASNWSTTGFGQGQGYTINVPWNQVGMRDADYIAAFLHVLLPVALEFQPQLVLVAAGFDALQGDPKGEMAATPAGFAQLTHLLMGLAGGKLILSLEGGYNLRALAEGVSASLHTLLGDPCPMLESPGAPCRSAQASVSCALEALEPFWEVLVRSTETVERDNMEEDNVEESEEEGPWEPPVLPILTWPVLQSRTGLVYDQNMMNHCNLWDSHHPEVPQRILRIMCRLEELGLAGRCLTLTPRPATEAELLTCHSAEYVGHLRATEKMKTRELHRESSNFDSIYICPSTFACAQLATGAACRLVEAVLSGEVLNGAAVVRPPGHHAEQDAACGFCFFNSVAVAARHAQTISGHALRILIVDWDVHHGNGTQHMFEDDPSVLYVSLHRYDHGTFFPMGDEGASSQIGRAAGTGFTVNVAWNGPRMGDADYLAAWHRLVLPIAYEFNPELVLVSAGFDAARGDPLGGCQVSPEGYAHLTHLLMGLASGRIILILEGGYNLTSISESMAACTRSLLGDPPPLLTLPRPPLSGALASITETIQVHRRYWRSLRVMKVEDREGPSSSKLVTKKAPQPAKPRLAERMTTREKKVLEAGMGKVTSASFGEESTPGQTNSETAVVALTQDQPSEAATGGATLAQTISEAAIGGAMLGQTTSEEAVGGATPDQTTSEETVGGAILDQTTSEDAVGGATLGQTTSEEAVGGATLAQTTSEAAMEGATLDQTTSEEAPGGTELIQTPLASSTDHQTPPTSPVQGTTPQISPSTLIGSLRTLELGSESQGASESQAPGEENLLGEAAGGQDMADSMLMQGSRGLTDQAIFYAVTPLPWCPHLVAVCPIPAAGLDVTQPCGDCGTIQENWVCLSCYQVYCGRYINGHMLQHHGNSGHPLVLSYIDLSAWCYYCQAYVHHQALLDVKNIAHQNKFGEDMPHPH
The assay can be described thus: Inhibition of HDAC6 in TGF-beta1-induced HELF cells assessed as upregulation of acetylated alpha-tubulin level by Western blot analysis. It counts as cell-based. The following applies: dose 2.5-10 µM. Background: A western blot detects proteins with antibodies after separation by electrophoresis.

`CC(=O)O.O=C(NO)c1ccc(CN2C(=O)[C@@H]3CCCN3Cc3ccccc32)cc1`: the inhibition entry is “Dose-Dependent Effect”.
